The source of these data is paper PMC9084191 (European Journal of Pharmaceutics and Biopharmaceutics, 2022).

The conditions of data set [1]: cited from earlier work.
The nature of data set [2]: Crystallinity by PXRD following preparation. In kind it is physicochemical. The following applies: immediately following preparation. How it is done: (§1) Crystallinity of ASDs and DLM salts was evaluated using a Rigaku Smartlab diffractometer (Rigaku Americas, The Woodlands, TX) equipped with a Cu–Kα radiation source and a D/tex ultradetector. Samples were added to glass sample holders, and powder patterns were recorded over the range of 4-40° 2θ at a scanning speed of 4° per min and a 0.02° step size with the voltage and current set to 40 kV and 44 mA, respectively.

Data set [3] is described as follows: Glass transition temperature by DSC. In kind it is physicochemical. The following applies: for Tg: neat drug, salt or polymer. As for the experimental part: The glass transition temperatures (Tg) of drug, polymers and ASD samples were determined using a TA Q2000 DSC equipped with an RCS90 refrigeration unit (TA Instruments, New Castle, DE). The temperature calibration was performed using indium and tin, while enthalpy calibration was conducted with indium. Samples (5–10 mg) were added to aluminum pans with a pinhole lid (Tzero pan, TA Instrument, DE). […] The heating and cooling cycle was repeated 3 times to remove residual solvent and thermal history, and the last cycle was used for analysis.
For orientation: DSC measures the heat that a sample takes up or gives off during a temperature scan.

A further data set can be described thus: Water sorption analysis. The format is physicochemical. The settings on record: for Water sorption (%) at 95 % RH: 37 °C. As for the experimental part:
Water sorption profiles of DLM salts and ASDs were measured by using a SGA-100 symmetrical gravimetric analyzer (TA Instrument, New Castle, DE) at 37 °C. Samples (10–20 mg) were flushed with dry air for 3 h. After drying, samples were exposed to increasing relative humidity (RH) steps from 5 to 95% with a maximum step time of 180 min. Vapor sorption profiles are recorded as the equilibrium value (the weight change was below 0.001%/min over 5 min) at each RH.

The nature of data set [4]: Stability on storage at 40 °C/75% RH (PXRD, 19F NMR, HPLC). The format is physicochemical. The following applies: 2 weeks, 40 °C/RH 75%; for Drug content reduction (%): HPLC. As for the experimental part: The salt form of DLM was prepared using a Buchi Rotavapor-R (Newcastle, Delaware). DLM free base and sulfonic acid were added at drug-acid 1:1 molar ratio in a mixture of DCM and acetone (1:1 v/v) where alcoholic solvents were avoided to prevent the formation of alkyl esters during salt synthesis. Solvents were removed by rotary evaporation at 40 °C. DLM salts were then kept under vacuum at room temperature overnight to remove residual solvents. DLM salts were characterized by ^1H-nuclear magnetic resonance (NMR) spectroscopy to confirm salt formation. Their physical and chemical stability were monitored following storage at 40 °C/75% relative humidity (RH) by measuring several physicochemical properties, including crystallinity (by powder X-ray diffraction, PXRD), impurities (by ^19F NMR spectroscopy), drug content (by HPLC as described above) and hygroscopicity (using dynamic vapor sorption analysis).
as §1
Salt formation was confirmed by ^1H nuclear magnetic resonance (NMR) spectroscopy and impurities in DLM salts following preparation and storage were detected by ^19F NMR spectroscopy. Samples were dissolved in dimethyl sulfoxide-d6 (Cambridge Isotope Laboratories, Inc., Andover, MA) at a concentration of 20 mg/mL. All NMR spectra were acquired on a Bruker DRX 500 MHz spectrometer (Karlsruhe, Germany) equipped with a BBFO z-gradient probe operating at room temperature. For ^1H NMR spectra, the spectral sweep width was 20 ppm, acquisition time was 1.6 sec and number of scans was 16. For ^19F NMR spectroscopy, ^1H was decoupled during acquisition, spectral sweep width was 50 ppm, acquisition time was 1.4 sec and the number of scans was 64.

The nature of data set [5]: Nucleation induction time measurement. The following applies: for Induction time (tind): 37 °C, no polymer. In kind it is physicochemical.
A short description of data set [6]: Release testing of tablets, single-stage PBS pH 6.5. The settings on record: PBS pH 6.5, single stage. The format is physicochemical. How it is done: (§2) The ASDs were mixed with excipients and compressed to obtain tablets containing 5 mg DLM with respect to the free base. All dissolution studies of DLM tablets were conducted in triplicate in single-stage or two-stage pH-shift condition using a Hanson Vision G2 Classic 6 dissolution system (Teledyne Hanson Research, Chatsworth, CA). For single-stage testing, the tablets containing the ASDs were added to 50 mL PBS, pH 6.5 and monitored for 1 h at 37° C, with 150 rpm of stirring. For pH-shift experiments, release in the acidic stage was conducted in 45 mL HCl solution pH 1.6 for 1 h, followed by addition of 5 mL concentrated PBS (pH 7.3) to adjust the pH of solution to pH 6.5 and drug release was monitored for an additional 30 min. An in situ Rainbow fiber optic ultraviolet spectrometer coupled with 10 mm fiber optic dip probes (Pion, Billerica, MA, USA) was used to monitor drug concentration over time. Second derivative analysis was applied to correct the spectral baseline and a calibration curve of area under curve (AUC) of the range 330–350 nm was used to calculate the drug concentration.

The nature of data set [7]: Release testing of tablets, two-stage pH-shift (pH 1.6 to 6.5). The format is physicochemical. As for the experimental part: as §2
Data set [8] can be described thus: Dynamic light scattering of DLM-rich nanodroplets. The format is physicochemical. The following applies: HPMCP and HPMCAS solutions 300 µg/mL, drug 50 µg/mL, PBS pH 6.5, 3-h period. How it is done:
The size of DLM-rich droplets formed above the amorphous solubility was measured by dynamic light scattering (DLS) using a Nano-Zetasizer (Nano-ZS, Malvern Instruments, Westborough, MA). […] To evaluate the impact of polymers on nanodroplet stability, polymers were pre-dissolved in solution at a concentration of 300 μg/mL and drug was introduced at 50 μg/mL. Samples were monitored for up to 3 h after liquid–liquid phase separation was initiated.

The conditions of data set [9]: cited from earlier work. This is another data set of the same source.
On the set-up of data set [10]: method as in PMID 24881816. The settings on record: predicted log P calculated by ALOGPS; cited from earlier work.
Details of data set [11]: method as in earlier work. The settings on record: predicted pKa; cited from earlier work.
Where [12] appears, read: value of the strongest acidity, ref [3, 4] of supplement.
[13] abbreviates: value of the strongest acidity, ref [2] of supplement.

Read-outs that look alike come from different tables or passages of the source.

One may read the pKa as the pH at which an ionisable group is half protonated. With `CC1(C)C2CC[C@@]1(CS(=O)(=O)O)C(=O)C2` [Camphorsulfonic, (1S)-(+)-10-camphorsulfonic acid], the pKa in data set [1] (value of the strongest acidity, ref [6] of supplement) is 1.2 [6].
For the compound `O.O.O=S(=O)(O)CCS(=O)(=O)O` [Ethanedisulfonic, 1,2-Ethanedisulfonic acid dihydrate], the pKa in [1] (setting [12]) is -2.1 [3, 4].
For the compound `CC1(COc2ccc(N3CCC(Oc4ccc(OC(F)(F)F)cc4)CC3)cc2)Cn2cc([N+](=O)[O-])nc2O1.CC1(COc2ccc(N3CCC(Oc4ccc(OC(F)(F)F)cc4)CC3)cc2)Cn2cc([N+](=O)[O-])nc2O1.O=S(=O)(O)c1cccc2c(S(=O)(=O)O)cccc12` (stereo not shown) [Napadisylate (2:1)], the “Crystallinity by PXRD (in words)” value in data set [2] is listed as “partial crystallization”.
On to `O=S(=O)(O)c1cccc2c(S(=O)(=O)O)cccc12` [Naphthalenedisulfonic, 1,5-naphthalenedisulfonic acid], for which the pKa in [1] (setting [12]) was 0.17 [3, 4].
With `O=S(=O)(O)c1ccc(Cl)cc1` [Chlorobenzenesulfonic, 4-chlorobenzenesulfonic acid], the pKa in [1] (value of the strongest acidity, ref [5] of supplement) is -0.61 [5].
Regarding `C[C@]1(COc2ccc(N3CCC(Oc4ccc(OC(F)(F)F)cc4)CC3)cc2)Cn2cc([N+](=O)[O-])nc2O1.O=S(=O)(O)c1ccc(Cl)cc1` [Closylate], the Tg in [3] stood at 90.1 °C. The “Water sorption (%) at 95 % RH” value in the data set “Water sorption analysis” is on record as 5.8%. In addition, in [4], the “Impurity (19F NMR) (%)” value is reported as 2.3%, the Liquefaction result was “liquefaction” and the “Drug content reduction (%)” value was 3.1%.
One may read the Log P as the decadic logarithm of the partition coefficient of the neutral form, usually between octanol and water. In the case of `C[C@]1(COc2ccc(N3CCC(Oc4ccc(OC(F)(F)F)cc4)CC3)cc2)Cn2cc([N+](=O)[O-])nc2O1` [Delamanid], the Induction time is 10.2 ± 3.1 min in data set [5] (PBS pH 6.5, Eud-L100 300 µg/mL); “about 50 min” in [5] (PBS pH 6.5, HPMC 300 µg/mL); “more than 1000 min” in data set [5] (PBS pH 6.5, HPMCAS 300 µg/mL); “more than 1000 min” in data set [5] (PBS pH 6.5, HPMCP 300 µg/mL); “more than 1000 min” in [5] (PBS pH 6.5, PVPVA 300 µg/mL); more than 720 min in data set [5] (in presence of PVPVA, HPMCAS or HPMCP). For the same compound, the “Glass forming ability class” value in data set [3] (cooling from the melt at 50 °C/min) is “Class I”. Besides, the Tg in [3] was 43.3 °C; in data set [3] (listed as delamanid free base), 43.3 ± 0.4 °C. In addition, in the data set “Water sorption analysis”, the “Hygroscopicity (in words)” value is given as “non-hygroscopic”. The “Drug release (in words)” value in data set [6] is “no release was detected”. Moreover, the “Drug concentration released in acid stage” value in data set [7] (pH-shift experiment, low pH (1.6) stage) was “around 20 µg/mL”. Besides, the Nanodroplet size change result in data set [8] is reported as “no notable change”. Also, the “Log P” value in data set [9] is on record as 5.67; in data set [10] it was 6.14. The pKa in data set [1] was 4.3; in data set [11] it was 3.99.
Take `C[C@]1(COc2ccc(N3CCC(Oc4ccc(OC(F)(F)F)cc4)CC3)cc2)Cn2cc([N+](=O)[O-])nc2O1.O=S(=O)(O)CCS(=O)(=O)O` [DLM-edisylate (1:1)]: the Tg in [3] was 53.9 °C. Besides, in the data set “Water sorption analysis”, the “Water sorption (%) at 95 % RH” value is reported as 59%.
In the case of Tosylate, the “Induction time (tind)” value in data set [5] (FaSSGF (pH 1.6), at amorphous solubility) is 1.0 min. The “Induction time (tind)” value in [5] (PBS pH 6.5, at amorphous solubility) is 18.5 min. In addition, the Tg in data set [3] amounted to 90.2 °C. The “Water sorption (%) at 95 % RH” value in the data set “Water sorption analysis” turned out to be 6.1%. Also, in data set [4], the “Impurity (19F NMR) (%)” value was determined as 1.0%, the Liquefaction result is “liquefaction” and the “Drug content reduction (%)” value was 2.1%.
As for `CCS(=O)(=O)O` [Ethanesulfonic, Ethanesulfonic acid], the pKa in [1] (setting [13]) is listed as -1.68; in data set [1] (value of the strongest acidity, ref [3] of supplement) it was -2.05.
In the case of `CC1(C)[C@@H]2CC[C@@]1(CS(=O)(=O)O)C(=O)C2.C[C@]1(COc2ccc(N3CCC(Oc4ccc(OC(F)(F)F)cc4)CC3)cc2)Cn2cc([N+](=O)[O-])nc2O1` [Camsylate], the Tg in [3] was 97.9 °C. Besides, the “Water sorption (%) at 95 % RH” value in “Water sorption analysis” is listed as 8.1%. For the same compound, in [4], the “Impurity (19F NMR) (%)” value turned out to be 2.0% and the “Drug content reduction (%)” value is 6.1%.
As for `O=S(=O)(O)c1ccccc1` [Benzenesulfonic, benzenesulfonic acid], in [1] (setting [13]), the pKa is given as -2.8.
For `C[C@]1(COc2ccc(N3CCC(Oc4ccc(OC(F)(F)F)cc4)CC3)cc2)Cn2cc([N+](=O)[O-])nc2O1.C[C@]1(COc2ccc(N3CCC(Oc4ccc(OC(F)(F)F)cc4)CC3)cc2)Cn2cc([N+](=O)[O-])nc2O1.O=S(=O)(O)CCS(=O)(=O)O` [Edisylate (2:1)], the Tg in [3] worked out at 117.8 °C. Moreover, the “Water sorption (%) at 95 % RH” value in the data set “Water sorption analysis” came to 11.6%. Besides, in data set [4], the “Impurity (19F NMR) (%)” value is given as 1.0% and the “Drug content reduction (%)” value is 0.8%. Moreover, the “Drug release (in words)” value in data set [6] was “no release”. Moreover, the “Release in acidic medium (in words)” value in [7] (acid stage of pH-shift experiment) is “slightly higher than that observed for DLM free base”.
